Assay results published in US7732447B2, “Fused [d]pyridazin-7-ones” (Cephalon, Inc., priority 2006, dated 2010).

Target: T1, MLK1 (GST-MLK1KD) (Homo sapiens, UniProt P80192)
T1 construct: 1 μg/mL of baculoviral GST-MLK1KD (Lot 23.1A); GST; made in house
Assay: Mixed Lineage Kinase-1 inhibition assay (32P, myelin basic protein)
Assay type: biochemical
Conditions: 1 uM compound; 60 μM ATP; read-out: MLK-1 % inhibition @ 1 uM
Description: The activity assay for MLK1 was performed using the 96-well Millipore Multiscreen plate format. Each 50-μL assay mixture contained 50 mM HEPES (pH 7.0), 1 mM EGTA, 10 mM MgCl2, 1 mM DTT, 25 mM β-glycerophosphate, 60 μM ATP, 1 μCi [γ-^32P]ATP, 0.1% BSA, 500 μg/mL myelin basic protein (Upstate #13-104), 2% DMSO, various concentrations of test compound, and 1 μg/mL of baculoviral GST-MLK1KD (Lot 23.1A). Samples were incubated for 15 minutes at 37° C. The reaction was stopped by adding ice-cold 50% trichloroacetic acid (TCA) and the proteins were allowed to precipitate for 30 minutes at 4° C. The plates were then washed with ice-cold 25% TCA. Supermix scintillation cocktail was added, and the plates were allowed to equilibrate for 1-2 hours prior to counting in the Wallac MicroBeta 1450 Plus scintillation counter.

T1 sequence (P80192 144-412 limits assumed, species assumed): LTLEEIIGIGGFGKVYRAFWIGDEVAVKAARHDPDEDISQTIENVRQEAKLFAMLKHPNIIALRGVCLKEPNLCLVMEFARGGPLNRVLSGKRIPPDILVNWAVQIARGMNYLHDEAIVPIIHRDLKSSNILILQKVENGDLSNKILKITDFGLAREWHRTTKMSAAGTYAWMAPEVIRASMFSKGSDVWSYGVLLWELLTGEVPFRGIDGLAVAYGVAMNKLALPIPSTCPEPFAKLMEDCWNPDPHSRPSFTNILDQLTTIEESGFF

| SMILES | inhibition at 1 µM [%] |
| --- | --- |
| O=c1[nH]nc(-c2ccc(-c3ccccc3)cc2)c2[nH]c3ccccc3c12 [Example 4i, 4-Biphenyl-4-yl-2,5-dihydro-pyridazino[4,5-b]indol-1-one] | 14 |
| COc1ccc2[nH]c3c(-c4cc5ccccc5o4)n[nH]c(=O)c3c2c1 [Example 4l, 4-Benzofuran-2-yl-8-methoxy-2,5-dihydro-pyridazino[4,5-b]indol-1-one] | 53 |
| O=c1[nH]nc(-c2ccc3ccccc3c2)c2c1[nH]c1ccccc12 [Example 14c, 1-Naphthalen-2-yl-3,5-dihydro-pyridazino[4,5-b]indol-4-one] | 12 |
| O=c1[nH]nc(-c2cc3ccccc3o2)c2[nH]c3cccc(OCc4ccccc4)c3c12 [Example 4n, 4-Benzofuran-2-yl-9-benzyloxy-2,5-dihydro-pyridazino[4,5-b]indol-1-one] | 44 |
| O=c1[nH]nc(-c2cnc3ccccc3n2)c2[nH]c3ccccc3c12 [Example 4j, 4-Quinoxalin-2-yl-2,5-dihydro-pyridazino[4,5-b]indol-1-one] | 0 |

Second part, the compound after the results:

| inhibition at 1 µM [%] | SMILES |
| --- | --- |
| 2 | Cn1ccnc1-c1n[nH]c(=O)c2c1[nH]c1ccccc12 [Example 4g, 4-(1-Methyl-1H-imidazol-2-yl)-2,5-dihydro-pyridazino[4,5-b]indol-1-one] |
| 0 | O=c1[nH]nc(-c2ccncc2)c2[nH]c3ccccc3c12 [Example 4d, 4-Pyridin-4-yl-2,5-dihydro-pyridazino[4,5-b]indol-1-one] |
| 0 | Cn1c(-c2n[nH]c(=O)c3c2[nH]c2ccccc23)nc2ccccc21 [Example 4h, 4-(1-Methyl-1H-benzoimidazol-2-yl)-2,5-dihydro-pyridazino[4,5-b]indol-1-one] |

Same assay, conditions: 60 μM ATP; read-out: MLK-1 IC50

| IC50 [nM] | SMILES |
| --- | --- |
| 1020 | COc1ccc2[nH]c3c(-c4cc5ccccc5o4)n[nH]c(=O)c3c2c1 [Example 4l, 4-Benzofuran-2-yl-8-methoxy-2,5-dihydro-pyridazino[4,5-b]indol-1-one] |

Target: T2, vascular endothelial growth factor receptor-2 (VEGFR2) cytoplasmic domain (Homo sapiens, UniProt P35968)
T2 construct: recombinant baculovirus-expressed vascular endothelial growth factor receptor-2 (VEGFR2) cytoplasmic domain; made in house
T2 sequence (P35968 786-1356 limits assumed, species assumed): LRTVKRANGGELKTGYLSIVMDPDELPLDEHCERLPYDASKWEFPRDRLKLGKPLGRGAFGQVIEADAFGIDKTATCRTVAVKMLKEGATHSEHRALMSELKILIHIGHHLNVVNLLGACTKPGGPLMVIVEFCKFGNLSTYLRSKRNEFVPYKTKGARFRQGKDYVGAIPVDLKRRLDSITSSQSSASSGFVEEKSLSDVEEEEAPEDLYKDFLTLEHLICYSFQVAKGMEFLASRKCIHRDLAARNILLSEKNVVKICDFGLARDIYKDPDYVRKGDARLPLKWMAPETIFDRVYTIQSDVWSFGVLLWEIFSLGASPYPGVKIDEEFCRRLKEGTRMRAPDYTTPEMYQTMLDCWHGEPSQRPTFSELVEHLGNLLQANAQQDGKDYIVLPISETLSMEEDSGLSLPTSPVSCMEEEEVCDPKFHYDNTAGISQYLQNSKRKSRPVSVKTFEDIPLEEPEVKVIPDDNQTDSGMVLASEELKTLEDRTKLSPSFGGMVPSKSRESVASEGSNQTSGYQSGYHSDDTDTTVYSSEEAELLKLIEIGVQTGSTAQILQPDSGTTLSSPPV
Assay: Vascular Endothelial Growth Factor Receptor-2 kinase inhibition assay (TRF)
Assay type: biochemical
Conditions: 300 nM compound; 40 μM ATP; read-out: VEGFR-2 % inhibition @ 300 nM
Description: Compounds were tested for their ability to inhibit the kinase activity of recombinant baculovirus-expressed vascular endothelial growth factor receptor-2 (VEGFR2) cytoplasmic domain using the time-resolved fluorescence (TRF) detection system. IC50s were conducted in 96-well Costar high binding plates (Corning Costar #3922, Corning, N.Y.). Briefly, each 96-well plate was coated with 100 μL/well of 10 μg/mL recombinant substrate, glutathione S-transferase-phospholipase C-γ fusion protein (GST-PLCγ Lot # 3P5.1A), in Tris-buffered saline (TBS). The VEGFR2 assay mixture (total volume=100 μL/well) consisting of 20 mM HEPES, pH 7.2, 40 μM ATP, 10 mM MnCl2, 0.1% bovine serum albumin (BSA), and test compound (diluted in DMSO; 2.5% DMSO final in assay) was then added to the assay plate. Enzyme (30 ng/mL VEGFR2 Lot # V2g-2.1A) was added and the reaction was allowed to proceed at 37° C. for 15 minutes. Detection of the phosphorylated product was performed by adding 100 μL/well of Eu-N1 labeled PY100 antibody (PerkinElmer Life Sciences #AD0160, Boston, Mass.) diluted 1:5000 in 0.25% BSA in TBS containing 0.05% Tween-20 (TBS-T). Incubation at 37° C. then proceeded for 1 hour, followed by addition of 100 μL enhancement solution (PerkinElmer Life Sciences #1244-105, Boston, Mass.). The plate was gently agitated and after 30 minutes, the fluorescence of the resulting solution was measured using the PerkinElmer EnVision 2100 (or 2102) multilabel plate reader.

| SMILES | inhibition at 0.3 µM [%] |
| --- | --- |
| O=c1[nH]nc(-c2ccc(-c3ccccc3)cc2)c2[nH]c3ccccc3c12 [Example 4i, 4-Biphenyl-4-yl-2,5-dihydro-pyridazino[4,5-b]indol-1-one] | 16 |
| COc1ccc2[nH]c3c(-c4cc5ccccc5o4)n[nH]c(=O)c3c2c1 [Example 4l, 4-Benzofuran-2-yl-8-methoxy-2,5-dihydro-pyridazino[4,5-b]indol-1-one] | 9 |
| O=c1[nH]nc(-c2ccc3ccccc3c2)c2c1[nH]c1ccccc12 [Example 14c, 1-Naphthalen-2-yl-3,5-dihydro-pyridazino[4,5-b]indol-4-one] | 1 |
| O=c1[nH]nc(-c2cc3ccccc3o2)c2[nH]c3cccc(OCc4ccccc4)c3c12 [Example 4n, 4-Benzofuran-2-yl-9-benzyloxy-2,5-dihydro-pyridazino[4,5-b]indol-1-one] | 2 |
| O=c1[nH]nc(-c2cnc3ccccc3n2)c2[nH]c3ccccc3c12 [Example 4j, 4-Quinoxalin-2-yl-2,5-dihydro-pyridazino[4,5-b]indol-1-one] | 0 |

Continued, values first:

| inhibition at 0.3 µM [%] | SMILES |
| --- | --- |
| 0 | Cn1ccnc1-c1n[nH]c(=O)c2c1[nH]c1ccccc12 [Example 4g, 4-(1-Methyl-1H-imidazol-2-yl)-2,5-dihydro-pyridazino[4,5-b]indol-1-one] |
| 18 | O=c1[nH]nc(-c2ccncc2)c2[nH]c3ccccc3c12 [Example 4d, 4-Pyridin-4-yl-2,5-dihydro-pyridazino[4,5-b]indol-1-one] |
| 0 | Cn1c(-c2n[nH]c(=O)c3c2[nH]c2ccccc23)nc2ccccc21 [Example 4h, 4-(1-Methyl-1H-benzoimidazol-2-yl)-2,5-dihydro-pyridazino[4,5-b]indol-1-one] |

System: not given
Assay: not given
Conditions: not given

| SMILES | melting point [°C] |
| --- | --- |
| COc1ccc2c(c1)[nH]c1c(-c3ccc(O)cc3)n[nH]c(=O)c12 [Example 4u, 4-(4-Hydroxy-phenyl)-7-methoxy-2,5-dihydro-pyridazino[4,5-b]indol-1-one] | > 300 |
| COc1ccc2c(c1)[nH]c1c(-c3ccc(OCc4ccccc4)cc3)n[nH]c(=O)c12 [Example 4t, 4-(4-Benzyloxy-phenyl)-7-methoxy-2,5-dihydro-pyridazino[4,5-b]indol-1-one] | > 300 |

Other lines, results leading:

| melting point [°C] | SMILES |
| --- | --- |
| > 300 | O=c1[nH]nc(-c2ccc(O)cc2)c2[nH]c3ccccc3c12 [Example 4s, 4-(4-Hydroxy-phenyl)-2,5-dihydro-pyridazino[4,5-b]indol-1-one] |
| > 300 | COc1ccc(-c2n[nH]c(=O)c3c2[nH]c2ccccc23)cc1 [Example 4r, 4-(4-Methoxy-phenyl)-2,5-dihydro-pyridazino[4,5-b]indol-1-one] |

Target: CDK5/GST-p25 (Homo sapiens, UniProt Q00535)
Sequence (Q00535 whole entry, species assumed): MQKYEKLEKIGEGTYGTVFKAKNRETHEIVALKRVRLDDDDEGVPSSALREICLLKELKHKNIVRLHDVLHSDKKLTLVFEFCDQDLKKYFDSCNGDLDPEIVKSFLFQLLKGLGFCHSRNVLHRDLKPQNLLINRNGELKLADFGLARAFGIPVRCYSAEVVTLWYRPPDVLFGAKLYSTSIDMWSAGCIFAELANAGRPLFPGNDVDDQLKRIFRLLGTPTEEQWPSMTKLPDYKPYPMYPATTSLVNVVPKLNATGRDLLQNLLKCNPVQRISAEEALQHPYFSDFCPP
Sequence (Q15078 99-307 partner limits assumed, species assumed): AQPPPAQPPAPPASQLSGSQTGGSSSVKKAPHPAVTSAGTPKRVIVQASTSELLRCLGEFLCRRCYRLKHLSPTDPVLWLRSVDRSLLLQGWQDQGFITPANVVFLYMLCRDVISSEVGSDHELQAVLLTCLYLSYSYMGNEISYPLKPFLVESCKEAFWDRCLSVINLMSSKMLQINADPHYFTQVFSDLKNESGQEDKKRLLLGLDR
Assay: Cyclin-Dependent Kinase 5 inhibition assay (TRF)
Assay type: biochemical
Conditions: 10 μM ATP; read-out: CDK-5 IC50
Description: Compounds were tested for their ability to inhibit the kinase activity of baculovirus-expressed cyclin-dependent kinase-5 complexed with GST-p25 (CDK5/GST-p25) using a a TRF detection system. Each 96-well Costar high binding plate (Corning Costar #3922, Corning, N.Y.) was coated with 100 μL/well of 50 μg/mL recombinant GST-tagged substrate [GST-retinoblastoma protein (Rb) Lot # 5.1A] in TBS. The CDK5/GST-p25 assay mixture (total volume=100 μL/well) consisting of 20 mM HEPES, pH 7.2, 10 μM ATP, 10 mM MgCl2, 5 mM EGTA, 25 mM β-glycerophosphate, 0.1% BSA, 2.5% DMSO, and various concentrations of test compound were then added to the assay plate. Enzyme (2 ng/mL CDK5/GST-p25 Lot # p25/CD5-3) was added and the reaction was allowed to proceed at 37° C. for 20 minutes. Detection of the phosphorylated product was performed by adding 100 μL/well of phospho-Rb (Ser-780) antibody (Cell Signaling #9307, Beverly, Mass.) diluted 1:10,000 in antibody dilution buffer (0.1% BSA in TBS-T). After 1-hour incubation at room temperature, 100 μL/well of Eu—N1 labelled anti-rabbit antibody diluted 1:50,000 in antibody dilution buffer (PerkinElmer Life Sciences #AD0105, Boston, Mass.) was added. Incubation at room temperature then proceeded for 1 hour, followed by addition of 100 μl enhancement solution (PerkinElmer Life Sciences #1244-105, Boston, Mass.). The plate was gently agitated and after a few minutes, the fluorescence of the resulting solution was measured using the PerkinElmer EnVision 2100 (or 2102) multilabel plate reader.

| SMILES | IC50 [nM] |
| --- | --- |
| COc1ccc2c(c1)[nH]c1c(-c3ccc(O)cc3)n[nH]c(=O)c12 [Example 4u, 4-(4-Hydroxy-phenyl)-7-methoxy-2,5-dihydro-pyridazino[4,5-b]indol-1-one] | 756 |
| COc1ccc2c(c1)[nH]c1c(-c3ccc(OCc4ccccc4)cc3)n[nH]c(=O)c12 [Example 4t, 4-(4-Benzyloxy-phenyl)-7-methoxy-2,5-dihydro-pyridazino[4,5-b]indol-1-one] | > 1000 |

Further lines, results first:

| IC50 [nM] | SMILES |
| --- | --- |
| 657 | O=c1[nH]nc(-c2ccc(O)cc2)c2[nH]c3ccccc3c12 [Example 4s, 4-(4-Hydroxy-phenyl)-2,5-dihydro-pyridazino[4,5-b]indol-1-one] |
| > 1000 | COc1ccc(-c2n[nH]c(=O)c3c2[nH]c2ccccc23)cc1 [Example 4r, 4-(4-Methoxy-phenyl)-2,5-dihydro-pyridazino[4,5-b]indol-1-one] |
| 3820 | O=c1[nH]nc(-c2ccncc2)c2[nH]c3ccccc3c12 [Example 4d, 4-Pyridin-4-yl-2,5-dihydro-pyridazino[4,5-b]indol-1-one] |
| > 3000 | O=c1[nH]nc(-c2ccc(O)cc2)c2c1[nH]c1ccccc12 [Example 14e, 1-(4-Hydroxy-phenyl)-3,5-dihydro-pyridazino[4,5-b]indol-4-one] |
| > 3000 | O=c1[nH]nc(-c2ccncc2)c2[nH]c3ccc([N+](=O)[O-])cc3c12 [Example 4v, 8-Nitro-4-pyridin-4-yl-2,5-dihydro-pyridazino[4,5-b]indol-1-one] |
